For this test, the target named is T1, Fc portion of human IgG (binding of protein A to human IgG).
T1 construct: fused on or other part: Horseradish peroxidase chemically conjugated to the IgG (HRP-IgG)
Briefly: Competitive protein A binding ELISA. How it is done: As described above, this assay evaluates the ability of the exemplified compounds to mimic protein A. Such compounds can bind to the Fc portion of human IgG as ascertained by the inhibition of binding of protein A to human IgG. The competitive protein A binding ELISA assay was performed on a 96-well plate Maxisorp surface to enhance the binding of protein A to the bottom of the plate. The wells were coated with 100 μL of protein A (0.8 μg) and incubated overnight at 4° C. After incubation, unbound protein A was removed by three washes with phosphate buffer saline (PBS). The plate was then incubated with 100 μL/well of a 2% solution of bovine serum albumin (BSA) for 1 h at 37° C. to block non specific protein binding. After incubation, the plate was washed to times with PBS. 50 μL of compound or protein A, diluted in PBS or PBS-20% DMSO at appropriate concentration, were added to the wells followed by addition of 50 μL of peroxidase-conjugated human IgG (HRP-IgG). After 1 h incubation at 37° C., the plate was washed free times with PBS to remove unbound HRP-IgG. Bound HRP-IgG was detected by incubation with 100 μL of 2,2′-Azino-di[3-ethylbenzothiazoline sulfonate]diammonium salt crystals (ABTS) solution for 20 min in the dark at room temperature. The plate was then read at 405 nm on a EL 800, universal Microplate reader (Bio-Tek). Data was analyzed in Microsoft Excel and the concentration of compound which inhibits 50% binding of protein A (IC50) was calculated using Prism software.
Table 1 represents the IC50 of compounds tested in the competitive protein A binding ELISA assay, which consists of a side-by-side analysis in PBS and PBS-20% DMSO. DMSO was used to increase the solubility of some of the compounds.
For orientation: An ELISA detects its analyte on a solid surface through an enzyme-linked reagent.

Setting [1] is: Table 1, PBS-20% DMSO, read-out: IC50 (μM): Assay in PBS-20% DMSO.
Setting [2] is: Table 1, PBS, read-out: IC50 (μM): Assay in PBS.
Setting [3] is: Table 2, PBS-20% DMSO, n = 5 or 6, read-out: IC50 (n = 5 or 6) PBS-20% DMSO.
[4] abbreviates: Table 2, PBS, n = 5 or 6, read-out: IC50 (n = 5 or 6) PBS.

Each structure is given as a SMILES string. Where two headings read alike, the source gives them in different places.

On to `Nc1ccc(CNc2nc(NCCNc3nc(NCc4ccc(N)cc4)nc(Nc4ccccc4)n3)nc(Nc3ccccc3)n2)cc1` [Compound 6], for which the IC50 amounted to 0.4 µM under setting [1] and 2.4 µM under setting [2].
In the case of `COC(=O)[C@H](Cc1ccc(O)cc1)Nc1nc(NCCNc2nc(NCCc3cc4ccccc4[nH]3)nc(N[C@@H](Cc3ccc(O)cc3)C(=O)OC)n2)nc(NCCc2cc3ccccc3[nH]2)n1` [Compound 8], under setting [1], the IC50 amounted to 28 µM.
On the same count and under the same terms, the figure for `O=C(O)c1ccccc1Nc1nc(NCCNc2nc(NCCc3ccc(O)cc3)nc(Nc3ccccc3C(=O)O)n2)nc(NCCc2ccc(O)cc2)n1` [Compound 9] is 50 µM.
On to `O=C(O)[C@H](Nc1nc(NCCNc2nc(NCCc3ccc(O)cc3)nc(N[C@@H](C(=O)O)c3ccccc3)n2)nc(NCCc2ccc(O)cc2)n1)c1ccccc1` [Compound 10], for which the IC50 reads like this: under setting [1], 85 µM; under setting [2], 69 µM.
Consider `Oc1ccc(CCNc2nc(Nc3ccccc3)nc(Nc3ccc(CNc4nc(NCCc5cnc[nH]5)nc(Nc5ccccc5)n4)cc3)n2)cc1` [Compound 27], for which the IC50 under setting [1] was determined as 28 µM.
As to `Nc1ccc(CCNc2nc(Nc3cccc(N)c3)nc(N3CCN(c4nc(NCCc5ccc(N)cc5)nc(Nc5cccc(N)c5)n4)CC3)n2)cc1` [Compound 29], the IC50 is, setting by setting: under setting [1], 0.003 µM; under setting [2], 0.2 µM; under setting [3], 0.0029 µM; under setting [4], 0.225 µM.
The corresponding values for `Nc1ccc(CCNc2nc(NCC3CCN(c4nc(NCCc5ccc(N)cc5)nc(Nc5cccc(N)c5)n4)CC3)nc(Nc3cccc(N)c3)n2)cc1` [Compound 30] are 0.03 µM, 0.4 µM, 0.033 µM and 0.426 µM.
As to `Nc1ccc(CCNc2nc(NCCCCCCNc3nc(NCCc4ccc(N)cc4)nc(Nc4cccc(N)c4)n3)nc(Nc3cccc(N)c3)n2)cc1` [Compound 31], the IC50 is, setting by setting: under setting [1], 0.12 µM; under setting [2], 0.99 µM.
`Nc1ccc(CCNc2nc(NCC3CCN(c4nc(NCCc5ccc(N)cc5)nc(Nc5ccccc5)n4)CC3)nc(Nc3ccccc3)n2)cc1` [Compound 32]: the IC50 is 2 µM under setting [1] and 33 µM under setting [2].
Take `Cc1ccc(Nc2nc(NCCc3ccc(N)cc3)nc(Nc3ccccc3)n2)cc1CNc1nc(NCCO)nc(Nc2ccccc2)n1` [Compound 34]: the IC50 runs as follows: under setting [1], 1 µM; under setting [2], 23 µM.
The corresponding values for `Nc1ccc(CCNc2nc(Nc3ccccc3)nc(Nc3cccc(CNc4nc(NCCO)nc(Nc5ccccc5)n4)c3)n2)cc1` [Compound 35] are 1 µM and 23 µM.
In the case of `Nc1ccc(CCNc2nc(Nc3ccccc3)nc(N3CCN(c4nc(NCCc5ccc(N)cc5)nc(Nc5ccccc5)n4)CC3)n2)cc1` [Compound 36], the IC50 under setting [1] turned out to be 16 µM.
Regarding `Oc1ccc(CCNc2nc(NCc3ccccc3Nc3nc(NCCc4ccc(O)cc4)nc(Nc4ccccc4)n3)nc(Nc3ccccc3)n2)cc1` [Compound 37], the concentration for half-maximal inhibition (IC50) under setting [1] came to 23 µM.
The same measure, in the same setting: the figure for `Oc1ccc(CCNc2nc(Nc3ccccc3)nc(N[C@H](COc3nc(NCCc4ccc(O)cc4)nc(Nc4ccccc4)n3)c3ccccc3)n2)cc1` [Compound 39] is 43 µM.
Turning to `Nc1cccc(Nc2nc(N)nc(NCc3ccc(CNc4nc(N)nc(Nc5cccc(N)c5)n4)cc3)n2)c1` [Compound 41], the IC50 by setting is: under setting [1], 0.02 µM; under setting [2], 0.03 µM.
With `Nc1cccc(Nc2nc(NCCO)nc(Nc3cccc(CNc4nc(Nc5cccc(N)c5)nc(Nc5cccc(N)c5)n4)c3)n2)c1` [Compound 43], the IC50 under setting [1] is 0.05 µM and the IC50 under setting [2] is 0.08 µM.
As for `Nc1cccc(Nc2nc(NCCO)nc(N3CCN(c4nc(Nc5cccc(N)c5)nc(Nc5cccc(N)c5)n4)CC3)n2)c1` [Compound 44], the IC50 amounted to 0.04 µM under setting [1] and 0.09 µM under setting [2].
Regarding `Nc1cccc(Nc2nc(N)nc(Nc3cccc(Nc4nc(NCCO)nc(Nc5cccc(N)c5)n4)c3)n2)c1` [Compound 46], the IC50 is 0.8 µM under setting [1] and 0.2 µM under setting [2].
`Nc1cccc(Nc2nc(NCCO)nc(Nc3ccc(Nc4nc(NCCO)nc(Nc5cccc(N)c5)n4)cc3)n2)c1` [Compound 47]: the concentration for half-maximal inhibition (IC50) came out at 0.2 µM under setting [1] and 0.2 µM under setting [2].

One may read the IC50 as the concentration that inhibits the measured activity by half.

(Values after patent US7683061B2, “Triazine dimers for the treatment of autoimmune diseases” (ProMetic BioSciences Inc., priority 2003, dated 2010).)
